The values below come from ChEMBL document CHEMBL1156052, “Discovery of 1-[4-(3-chlorophenylamino)-1-methyl-1H-pyrrolo[3,2-c]pyridin-7-yl]-1-morpholin-4-ylmethanone (GSK554418A), a brain penetrant 5-azaindole CB2 agonist for the treatment of chronic pain” (J Med Chem, 2009).

In series [1] the target is D(2) dopamine receptor (Homo sapiens) (UniProt P14416). The experiment in a line: Binding affinity to human dopamine D2S receptor at 1 uM.
Series [2] has as its target Histamine H2 receptor (Homo sapiens) (UniProt P25021). The experiment in a line: Binding affinity to human histamine H2 receptor at 1 uM.
Another series relates to Rattus norvegicus. The experiment in a line: Analgesic activity in po dosed rat joint model of chronic pain assessed as minimum effective dose administered BID for 5 days. It is filed as functional. Particulars: 120 h, read-out: MED.
The nature of series [3]: Drug level in rat blood at 130 mg/kg, po after 5 hrs. It is filed as ADME, organism-based. To be noted: read-out: Drug uptake. On the set-up: dose 130 mg/kg, route oral.
The target in a further series is Cannabinoid receptor 1 (Homo sapiens, UniProt P21554). In words: Agonist activity at human recombinant cannabinoid CB1 receptor expressed in MMY23 Saccharomyces cerevisiae assessed as degradation of FDGlu to fluorescein after 24 hrs by spectrofluorimetry. It counts as functional.
For series [4], the target named is T1, Cannabinoid receptor 2 (Homo sapiens, UniProt P34972). In words: Agonist activity at human recombinant cannabinoid CB2 receptor expressed in MMY23 Saccharomyces cerevisiae assessed as degradation of FDGlu to fluorescein after 24 hrs by spectrofluorimetry. It is filed as functional.
Series [5] deals with T1, Cannabinoid receptor 2. In words: Agonist activity at human recombinant cannabinoid CB2 receptor expressed in MMY23 Saccharomyces cerevisiae assessed as degradation of FDGlu to fluorescein after 24 hrs by spectrofluorimetry relative to HU210. It is filed as functional.
In a further series the target is Cytochrome P450 2C9 (Homo sapiens, UniProt P11712). In words: Inhibition of CYP2C9. It is filed as ADME.
For a further series, the target named is Cytochrome P450 2C19 (Homo sapiens, UniProt P33261). The experiment in a line: Inhibition of CYP2C19. It is filed as ADME.
The target in a further series is Cytochrome P450 3A4 (Homo sapiens, UniProt P08684). In words: Inhibition of CYP3A4. It counts as ADME.
Series [6] is described as follows: Dissociation constant, pKa of the compound. It is filed as physicochemical.
Series [7] addresses T1, Cannabinoid receptor 2. The experiment in a line: Agonist activity at human recombinant cannabinoid CB2 receptor expressed in CHOK1 cells assessed as forskolin-induced cAMP production by luciferase assay. It counts as functional, cell-based, CHO-K1. (Cyclic AMP is a second messenger, typically raised through Gs and lowered through Gi signalling.)
The target in series [8] is 5-hydroxytryptamine receptor 5A (Homo sapiens) (UniProt P47898). In words: Binding affinity to 5HT5A receptor at 1 uM.
Series [9] has as its target Sodium-dependent noradrenaline transporter (Homo sapiens) (UniProt P23975). In words: Binding affinity to NET at 1 uM.
Series [10] has as its target Adenosine receptor A1 (Homo sapiens) (UniProt P30542). The experiment in a line: Binding affinity to human adenosine A1 receptor at 1 uM.
Series [11] has as its target Adenosine receptor A2a (Homo sapiens) (UniProt P29274). In words: Binding affinity to human adenosine A2A receptor at 1 uM.
The next series is filed under the species Homo sapiens. In words: Selectivity ratio of EC50 for human recombinant cannabinoid CB1 receptor to EC50 for human recombinant cannabinoid CB2 receptor.

T1 sequence (P34972 whole entry): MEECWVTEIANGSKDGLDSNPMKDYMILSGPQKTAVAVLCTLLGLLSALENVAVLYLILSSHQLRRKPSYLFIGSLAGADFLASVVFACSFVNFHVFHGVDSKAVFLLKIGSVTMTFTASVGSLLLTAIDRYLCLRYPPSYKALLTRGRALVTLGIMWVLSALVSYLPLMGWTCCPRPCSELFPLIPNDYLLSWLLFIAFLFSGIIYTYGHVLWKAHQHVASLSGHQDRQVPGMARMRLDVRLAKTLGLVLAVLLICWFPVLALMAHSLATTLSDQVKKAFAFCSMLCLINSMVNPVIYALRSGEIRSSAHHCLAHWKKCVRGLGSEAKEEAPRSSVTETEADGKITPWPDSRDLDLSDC
Chain of Adenosine receptor A1 (Homo sapiens) (P30542 whole entry): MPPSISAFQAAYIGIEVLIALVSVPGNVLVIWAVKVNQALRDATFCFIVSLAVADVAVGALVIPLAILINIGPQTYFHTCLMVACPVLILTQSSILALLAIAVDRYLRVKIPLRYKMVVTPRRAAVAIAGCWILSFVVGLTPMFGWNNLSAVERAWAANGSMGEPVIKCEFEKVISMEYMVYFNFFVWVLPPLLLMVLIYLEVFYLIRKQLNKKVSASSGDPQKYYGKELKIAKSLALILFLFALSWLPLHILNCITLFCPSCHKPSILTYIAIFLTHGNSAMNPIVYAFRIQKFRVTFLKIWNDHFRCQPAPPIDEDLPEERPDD
Chain of 5-hydroxytryptamine receptor 5A (Homo sapiens) (P47898 whole entry): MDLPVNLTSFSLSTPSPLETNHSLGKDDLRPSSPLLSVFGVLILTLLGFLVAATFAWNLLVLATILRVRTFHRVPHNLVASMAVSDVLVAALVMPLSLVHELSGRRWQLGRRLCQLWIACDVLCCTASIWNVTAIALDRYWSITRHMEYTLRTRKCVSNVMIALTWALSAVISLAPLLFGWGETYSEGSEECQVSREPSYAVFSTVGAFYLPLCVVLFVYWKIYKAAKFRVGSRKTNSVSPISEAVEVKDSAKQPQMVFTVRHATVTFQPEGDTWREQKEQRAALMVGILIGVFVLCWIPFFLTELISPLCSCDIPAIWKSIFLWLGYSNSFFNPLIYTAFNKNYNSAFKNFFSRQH
Chain of Cytochrome P450 2C19 (P33261 whole entry): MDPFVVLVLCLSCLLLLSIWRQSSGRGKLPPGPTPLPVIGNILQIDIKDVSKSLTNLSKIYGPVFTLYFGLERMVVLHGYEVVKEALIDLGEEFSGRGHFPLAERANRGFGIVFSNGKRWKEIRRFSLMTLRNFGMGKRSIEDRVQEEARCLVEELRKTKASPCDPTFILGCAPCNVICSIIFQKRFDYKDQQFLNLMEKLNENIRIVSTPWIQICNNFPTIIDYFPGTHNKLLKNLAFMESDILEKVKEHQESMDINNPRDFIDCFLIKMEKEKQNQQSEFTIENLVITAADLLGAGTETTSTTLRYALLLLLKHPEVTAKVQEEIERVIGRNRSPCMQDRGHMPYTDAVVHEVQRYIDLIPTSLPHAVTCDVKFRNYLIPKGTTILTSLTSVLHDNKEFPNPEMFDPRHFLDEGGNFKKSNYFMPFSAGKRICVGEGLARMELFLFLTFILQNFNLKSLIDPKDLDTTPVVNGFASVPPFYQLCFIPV
Chain of Histamine H2 receptor (Homo sapiens) (P25021 whole entry): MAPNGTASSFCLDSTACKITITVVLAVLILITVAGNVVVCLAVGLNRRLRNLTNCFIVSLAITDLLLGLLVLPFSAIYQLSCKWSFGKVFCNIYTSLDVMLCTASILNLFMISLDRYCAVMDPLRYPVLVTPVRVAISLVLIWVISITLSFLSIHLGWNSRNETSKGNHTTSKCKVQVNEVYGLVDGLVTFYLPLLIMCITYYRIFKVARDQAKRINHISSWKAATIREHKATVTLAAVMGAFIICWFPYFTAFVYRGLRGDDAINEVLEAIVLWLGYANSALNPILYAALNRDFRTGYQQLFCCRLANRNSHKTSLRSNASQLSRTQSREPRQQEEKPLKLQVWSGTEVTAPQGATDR
Chain of Adenosine receptor A2a (Homo sapiens) (P29274 whole entry): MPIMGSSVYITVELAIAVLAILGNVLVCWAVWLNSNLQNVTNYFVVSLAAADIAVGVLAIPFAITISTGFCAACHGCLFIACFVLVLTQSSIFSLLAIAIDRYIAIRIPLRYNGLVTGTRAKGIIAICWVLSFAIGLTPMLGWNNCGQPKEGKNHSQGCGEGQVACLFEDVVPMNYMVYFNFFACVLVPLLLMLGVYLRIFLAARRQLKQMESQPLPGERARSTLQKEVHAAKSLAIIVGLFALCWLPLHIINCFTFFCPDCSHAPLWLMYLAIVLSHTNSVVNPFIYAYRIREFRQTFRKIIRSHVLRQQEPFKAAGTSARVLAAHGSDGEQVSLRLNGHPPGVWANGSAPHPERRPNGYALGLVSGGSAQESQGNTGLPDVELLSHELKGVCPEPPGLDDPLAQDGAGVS
Chain of D(2) dopamine receptor (Homo sapiens) (P14416 whole entry): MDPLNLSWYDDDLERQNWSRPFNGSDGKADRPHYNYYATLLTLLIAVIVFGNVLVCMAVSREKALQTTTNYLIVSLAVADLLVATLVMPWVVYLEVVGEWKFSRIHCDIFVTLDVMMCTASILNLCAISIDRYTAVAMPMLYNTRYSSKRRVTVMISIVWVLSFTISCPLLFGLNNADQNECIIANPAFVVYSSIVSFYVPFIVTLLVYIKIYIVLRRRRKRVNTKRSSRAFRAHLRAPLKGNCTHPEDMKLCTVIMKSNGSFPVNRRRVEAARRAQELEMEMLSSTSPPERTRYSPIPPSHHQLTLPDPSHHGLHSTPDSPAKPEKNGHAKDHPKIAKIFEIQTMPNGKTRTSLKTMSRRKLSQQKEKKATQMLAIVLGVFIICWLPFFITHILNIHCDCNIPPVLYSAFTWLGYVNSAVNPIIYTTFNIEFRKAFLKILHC
Chain of Cannabinoid receptor 1 (P21554 whole entry): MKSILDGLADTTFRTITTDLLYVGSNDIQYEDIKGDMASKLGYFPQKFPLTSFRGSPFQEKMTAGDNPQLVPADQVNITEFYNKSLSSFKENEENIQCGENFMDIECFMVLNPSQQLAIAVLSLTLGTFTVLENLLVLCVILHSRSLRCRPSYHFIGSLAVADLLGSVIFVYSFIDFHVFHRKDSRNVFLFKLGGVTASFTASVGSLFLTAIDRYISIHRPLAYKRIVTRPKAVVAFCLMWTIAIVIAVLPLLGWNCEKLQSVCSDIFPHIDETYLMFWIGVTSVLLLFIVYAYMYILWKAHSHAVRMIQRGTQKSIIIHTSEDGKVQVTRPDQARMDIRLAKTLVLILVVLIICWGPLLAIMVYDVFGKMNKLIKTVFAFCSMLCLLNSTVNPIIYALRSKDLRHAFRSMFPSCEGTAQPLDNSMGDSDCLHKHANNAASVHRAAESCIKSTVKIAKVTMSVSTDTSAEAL
Chain of Cytochrome P450 2C9 (P11712 whole entry): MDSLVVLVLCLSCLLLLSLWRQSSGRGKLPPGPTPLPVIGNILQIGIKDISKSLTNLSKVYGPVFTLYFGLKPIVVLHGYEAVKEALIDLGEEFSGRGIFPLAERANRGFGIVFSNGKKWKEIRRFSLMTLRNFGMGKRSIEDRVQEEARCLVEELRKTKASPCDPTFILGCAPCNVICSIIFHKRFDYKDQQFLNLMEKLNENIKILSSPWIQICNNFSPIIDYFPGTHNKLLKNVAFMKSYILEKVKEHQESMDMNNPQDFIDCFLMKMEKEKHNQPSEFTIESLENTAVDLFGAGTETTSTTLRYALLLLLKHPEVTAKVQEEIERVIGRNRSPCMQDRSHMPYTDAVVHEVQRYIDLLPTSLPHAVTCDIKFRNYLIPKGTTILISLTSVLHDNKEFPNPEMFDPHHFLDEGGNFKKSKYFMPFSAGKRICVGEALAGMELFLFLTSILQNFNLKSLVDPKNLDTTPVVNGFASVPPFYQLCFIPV
Chain of Cytochrome P450 3A4 (P08684 whole entry): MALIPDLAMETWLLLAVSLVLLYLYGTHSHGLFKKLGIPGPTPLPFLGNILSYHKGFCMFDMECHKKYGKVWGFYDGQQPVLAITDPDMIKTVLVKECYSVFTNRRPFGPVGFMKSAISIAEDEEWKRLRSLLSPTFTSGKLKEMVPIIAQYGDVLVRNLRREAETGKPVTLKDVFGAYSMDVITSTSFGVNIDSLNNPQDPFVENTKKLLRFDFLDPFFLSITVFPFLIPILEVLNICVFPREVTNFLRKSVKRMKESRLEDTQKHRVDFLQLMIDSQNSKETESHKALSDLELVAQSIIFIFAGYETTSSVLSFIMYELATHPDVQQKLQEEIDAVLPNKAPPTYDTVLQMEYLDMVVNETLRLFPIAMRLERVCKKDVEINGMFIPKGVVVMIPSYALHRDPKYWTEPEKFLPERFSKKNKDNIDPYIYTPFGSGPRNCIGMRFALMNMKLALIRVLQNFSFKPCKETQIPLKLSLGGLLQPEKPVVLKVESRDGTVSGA
Chain of Sodium-dependent noradrenaline transporter (Homo sapiens) (P23975 whole entry): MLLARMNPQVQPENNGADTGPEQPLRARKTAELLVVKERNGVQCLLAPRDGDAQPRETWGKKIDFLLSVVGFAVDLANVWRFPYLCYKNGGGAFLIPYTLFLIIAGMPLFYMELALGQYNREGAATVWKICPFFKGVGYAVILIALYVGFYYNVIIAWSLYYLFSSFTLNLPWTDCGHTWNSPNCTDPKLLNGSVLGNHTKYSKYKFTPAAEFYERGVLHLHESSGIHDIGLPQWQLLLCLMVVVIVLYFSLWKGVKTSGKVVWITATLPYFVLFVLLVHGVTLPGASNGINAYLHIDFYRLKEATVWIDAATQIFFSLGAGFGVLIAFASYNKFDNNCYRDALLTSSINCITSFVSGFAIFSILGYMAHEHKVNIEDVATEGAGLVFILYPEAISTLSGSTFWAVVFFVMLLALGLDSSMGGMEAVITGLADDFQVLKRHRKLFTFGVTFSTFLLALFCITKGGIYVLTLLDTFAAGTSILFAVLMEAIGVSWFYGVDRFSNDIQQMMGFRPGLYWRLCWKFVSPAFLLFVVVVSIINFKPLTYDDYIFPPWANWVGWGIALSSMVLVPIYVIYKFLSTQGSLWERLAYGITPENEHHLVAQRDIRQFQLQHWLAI

Broadly, the EC50 is the concentration that produces a half-maximal response. One may read the IC50 as the concentration that gives 50% inhibition. Usually pKa stands for the negative logarithm of the acid dissociation constant. In the case of `Cn1ccc2c(Nc3cccc(Cl)c3)ncc(C(=O)N3CCOCC3)c21`, the Activity was under 10% in series [1]; under 10% in [2]; 15% in [8]; 15% in [9]; under 10% in [10]; under 10% in series [11]. Further, the minimal effective dose in the series on Rattus norvegicus worked out at 3 mg/kg. The concentration at 5 h in series [3] came to 12.3 µM. The EC50 came to 6.3 µM on Cannabinoid receptor 1, 0.005 µM on Cannabinoid receptor 2 [4] and 0.008 µM on Cannabinoid receptor 2 [7]. Moreover, at Cannabinoid receptor 2 [5], the Efficacy was found to be 91%. For the same compound, the IC50 at Cytochrome P450 2C9 was found to be 42 µM; on Cytochrome P450 2C19, 41 µM; on Cytochrome P450 3A4 it was 24 µM. This compound also came in with a pKa in series [6] of 6.1. For the same compound, in the series filed under Homo sapiens, the Ratio EC50 was found to be 1200.
